Laboratory results reported in patent US20250352653A1, “NEURON TARGETED 2-DEOXYGLUCOSE DENDRIMER FOR IMAGING AND TREATMENT OF NEUROLOGICAL DISEASES” (Washington State University, priority 2024, published 2025).

Assays:
[1] = free drug; cited from earlier work
[2] = Water solubility; type: physicochemical; conditions: Rosi and its 2DG-D conjugate
[3] = test system: CATH.a neurons; test: MTT cytocompatibility, CATH.a; type: cell-based; conditions: all tested concentrations, 24 h
Description: (§1) Cytocompatibility studies were carried out using MTT assay as described in our previous work. […] After this, all the treated cells were incubated with MTT for 3 h till the purple-colored formazan crystals appeared. For dissolving these crystals, cell culture grade DMSO was added to each of the wells and incubated for 15 min. Finally, the absorbance was recorded at 570 nm using Synergy H1 hybrid multi-mode microplate. The percentage cytocompatibility was calculated using equation 2. All the measurements were done in triplicates with proper controls.

[4] = test system: human umbilical vein endothelial cells (HUVECs); test: MTT cytocompatibility, HUVEC; type: cell-based; conditions: all tested concentrations, 24 h
Description: as §1

[5] = test system: EOC 20 microglial cells; test: MTT cytocompatibility, EOC 20; type: cell-based; conditions: all tested concentrations, 24 h
Description: as §1

[6] = test system: TNF-α; test: Quantitative TNF-α ELISA; type: cell-based; conditions: LPS:H2O2 induced CATH.a, control 1-fold
Description: For determining the effect of 2DG-D-Rosi conjugates on the neuro-inflammation under in vitro conditions, the expression levels of tumor necrosis factor-alpha (TNF-α) and interleukin-6 (IL-6) were analyzed using an enzyme-linked immunosorbent assay (ELISA). The protocol was adapted from previously published literature with slight modifications. Briefly, CATH.a neurons (5×10^4 cells/well) were seeded into 96-well plates and cultured overnight. […] Following the treatment, the consumed culture media was collected and centrifuged at 12,000×g for 10 minutes to remove cellular debris. A 50 μL aliquot of the supernatant was added to ELISA plates pre-coated with primary antibodies for TNF-α and IL-6, respectively, and incubated for approximately 2 h. The cytokine concentrations (pg/mL) were determined using standard calibration curves provided in the ELISA kit, adhering to the manufacturer's instructions. All experiments were performed in triplicates, with appropriate controls.

[7] = test system: IL-6; test: Quantitative IL-6 ELISA; type: cell-based; conditions: LPS:H2O2 induced CATH.a, control ~1-fold
Description: For determining the effect of 2DG-D-Rosi conjugates on the neuro-inflammation under in vitro conditions, the expression levels of tumor necrosis factor-alpha (TNF-α) and interleukin-6 (IL-6) were analyzed using an enzyme-linked immunosorbent assay (ELISA). The protocol was adapted from previously published literature with slight modifications. Briefly, CATH.a neurons (5×10^4 cells/well) were seeded into 96-well plates and cultured overnight. The cells were pre-treated with lipopolysaccharide (LPS; 1 μg/mL) and hydrogen peroxide (H2O2, 100 μM) and then incubated with 2DG-D-Rosi conjugates at varying concentrations (50, 100, and 250 μg/mL) for 24 hours at 37° C. in a CO2 incubator. Following the treatment, the consumed culture media was collected and centrifuged at 12,000×g for 10 minutes to remove cellular debris. A 50 μL aliquot of the supernatant was added to ELISA plates pre-coated with primary antibodies for TNF-α and IL-6, respectively, and incubated for approximately 2 h. The cytokine concentrations (pg/mL) were determined using standard calibration curves provided in the ELISA kit, adhering to the manufacturer's instructions. All experiments were performed in triplicates, with appropriate controls.

[8] = test system: CATH.a cells; test: JC-1 mitochondrial membrane potential (MMP) assay; type: cell-based; conditions: for MFI of J-monomers (confocal): control ~141
Description: The JC-1 Mitochondrial Membrane Potential (MMP) Assay was used to assess 2DG-D-Rosi effects on CATH.a cells under TBI-like conditions via flow cytometry and confocal microscopy. Cells were pre-treated with LPS (1 μg/mL) and H2O2 (100 μM), followed by 2DG-D-Rosi treatment for 24 hours at 37° C., 5% CO2. After incubation, cells were stained with 2 μM JC-1 dye for 20 minutes at 37° C. in the dark. For flow cytometry, cells were analyzed on an Attune NxT® Flow Cytometer, with JC-1 monomers (green, depolarized mitochondria) detected in BL-1 (530/30 nm) and J-aggregates (red, polarized mitochondria) in YL-1 (585/16 nm). For confocal microscopy, cells were seeded on poly-L-lysine-coated coverslips, stained with JC-1, counterstained with DAPI, and imaged using a Leica SP-5 Confocal Microscope (20× water immersion magnification). The experiment was conducted in triplicate (n=3), and data were analyzed using GraphPad Prism® with statistical significance determined by a two-tailed t-test.

[9] = test system: CATH.a cells; test: Annexin V/propidium iodide assay; type: cell-based; conditions: 250 μg/mL
Description: Apoptosis/necrosis was assessed in CATH.a cells using the FITC ApoScreen® Annexin V Apoptosis Kit. Cells were pre-treated with LPS (1 μg/mL) and H2O2 (100 μM) for 6 hours to mimic TBI-like conditions, followed by 2DG-D-Rosi treatment for 24 hours at 37° C., 5% CO2. After incubation, cells were harvested, washed twice with cold PBS, and resuspended in 100 μL of 1× Annexin Binding Buffer. Staining was performed with 10 μL Annexin V-FITC and 10 μL Propidium Iodide (PI) for 15 minutes at 2-8° C. in the dark, followed by dilution with 380 μL 1× Annexin Binding Buffer. Samples were analyzed on an Attune NxT® Flow Cytometer using BL-1 (530/30 nm) for Annexin V-FITC and YL-1 (585/16 nm) for PI. Controls included unstained, Annexin V-only, and PI-only samples. Density plots were generated to classify viable, early apoptotic, necrotic, and late apoptotic/necrotic cells. The experiment was performed in triplicate (n=3), and data was analyzed using GraphPad Prism® with statistical significance determined by a two-tailed t-test.

[10] = test system: Caspase-3/7; test: Caspase-3/7 activity assay; type: cell-based; conditions: for caspase activity (confocal, ImageJ): control 100%
Description: For flow cytometry, 1×10^5lls per sample were incubated with Pheno Vue® 505 caspase-3/7 stain in fresh medium for 30 minutes, washed with PBS, and analyzed on an Attune NxT® Flow Cytometer using BL-1 (530/30 nm) for caspase activation detection. For confocal microscopy, 2×10^5 cells per well were seeded on poly-L-lysine-coated coverslips, stained with caspase-3/7 reagent, fixed in 4% PFA, permeabilized with 0.1% Triton® X-100, and counterstained with DAPI. Coverslips were mounted with Vectashield Plus® antifade medium and imaged using a Leica SP-5 Confocal Microscope (20× water immersion lens). The experiment was conducted in triplicate (n=3), and statistical significance was determined using GraphPad Prism® with a two-tailed t-test.

[11] = test system: PPARγ; test: PPARγ expression by flow cytometry and immunofluorescence; type: cell-based; conditions: for PPARγ expression (confocal, ImageJ): LPS:H2O2 group 1-fold
Description: For flow cytometry, 1×10^5 cells per sample were fixed in 4% PFA, permeabilized with 0.2% Triton® X-100, blocked with 3% BSA, and incubated overnight at 4° C. with an anti-PPARγ antibody.
For immunofluorescence, 5×10^4 cells per well were grown on poly-L-lysine-coated coverslips, treated, washed, and blocked with 3% BSA, followed by overnight incubation with an anti-PPARγ antibody at 4° C. on a 3D shaker. […] Imaging was performed using a […] SP5 Confocal Microscope (20× water immersion lens). The experiment was conducted in triplicate (n=3), and statistical significance was determined using GraphPad Prism® with a two-tailed t-test.

## CCc1ccc(CCOc2ccc(CC3SC(=O)NC3=O)cc2)nc1 (stereo not drawn) [Pio, pioglitazone]
[1]
  water solubility of free Pio: 4.42 µg/mL

## CN(CCOc1ccc(CC2SC(=O)NC2=O)cc1)c1ccccn1 (stereo not drawn) [Rosi, rosiglitazone]
[2]
  solubility in water: sparingly soluble
[3]
  cytotoxicity (MTT): No toxic effects
[4]
  cytotoxicity (MTT): No toxic effects
[5]
  cytotoxicity (MTT): No toxic effects
[6]; 100 μg/mL
  TNF-α levels: 0.91 fold
[6]; 250 μg/mL
  TNF-α levels: 0.85 fold
[6]; 500 μg/mL
  TNF-α levels: 0.77 fold
[7]; 50 μg/mL
  IL-6 levels: 0.88 fold
[7]; 100 μg/mL
  IL-6 levels: 0.86 fold
[7]; 250 μg/mL
  IL-6 levels: 0.67 fold
[8]; 50 μg/mL
  MFI of J-monomers (confocal): ~89
[8]; 100 μg/mL
  MFI of J-monomers (confocal): 74
[8]; 250 μg/mL, LPS:H2O2 group ~2.7
  MFI of J-aggregates (red fluorescence): ~78.1
[8]; 250 μg/mL
  MFI of J-monomers (confocal): 72
[8]; LPS+H2O2 ~0.24%, 2DG-D and Rosi at 250
  healthy mitochondria, flow cytometry: ~21.54%
[8]; LPS+H2O2 ~95.13%, 2DG-D and Rosi at 250
  depolarized mitochondria (J-Mon+/J-Agg-), flow cytometry: ~69.73%
[9]; LPS:H2O2 treated CATH.a (~31.07%)
  necrosis: ~1.67%
[9]; LPS:H2O2 treated CATH.a
  apoptosis: ~54.6%
[10]; 50 μg/mL
  caspase activity (confocal, ImageJ): ~75%
[10]; 100 μg/mL
  caspase activity (confocal, ImageJ): ~63%
[10]; 250 μg/mL
  caspase activity (confocal, ImageJ): ~68%
[10]; free Rosi vs LPS:H2O2, flow cytometry
  lowering of caspase activity: ~70%
[11]; 50 μg/mL
  PPARγ expression (confocal, ImageJ): 1.82 fold
[11]; 100 μg/mL
  PPARγ expression (confocal, ImageJ): 1.79 fold
[11]; 250 μg/mL
  PPARγ expression (confocal, ImageJ): 1.9 fold
[11]; LPS+H2O2 ~206, untreated ~112
  PPARγ expression MFI (flow cytometry): ~556
